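Values below derive from 48-hour exposures of cells grown in 96-well plates, with endpoints linearly interpolated between the two concentrations bracketing the appropriate inhibition level. GI50: concentration for 50% inhibition of growth.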 Active and inactive are the calls of the source. No stated cut-off is given here; in the data, active = GI50 up to about 1.1 µM and inactive = higher.
Experiments:
Assay in all cases: DTP human tumour cell line panel, 48 h
NCI-H460 = tested on: NCI-H460
SK-MEL-2 = tested on: SK-MEL-2
HCT-15 = tested on: HCT-15
SF-268 = tested on: SF-268
DU-145 = tested on: DU-145
SNB-75 = tested on: SNB-75
SK-OV-3 = tested on: SK-OV-3
LOX IMVI = tested on: LOX IMVI
SNB-19 = tested on: SNB-19
NCI/ADR-RES = tested on: NCI/ADR-RES
COLO 205 = tested on: COLO 205
SF-295 = tested on: SF-295
SF-539 = tested on: SF-539
ACHN = tested on: ACHN
OVCAR-5 = tested on: OVCAR-5
RXF 393 = tested on: RXF 393
TK-10 = tested on: TK-10
IGROV-1 = tested on: IGROV-1
T47D = tested on: T47D
MDA-MB-231 = tested on: MDA-MB-231
Hs-578T = tested on: Hs-578T
MOLT-4 = tested on: MOLT-4
UO-31 = tested on: UO-31
NCI-H23 = tested on: NCI-H23
OVCAR-3 = tested on: OVCAR-3
SN12C = tested on: SN12C
CAKI-1 = tested on: CAKI-1
A549 = tested on: A549
786-0 = tested on: 786-0
KM12 = tested on: KM12
PC-3 = tested on: PC-3
M14 = tested on: M14
MCF7 = tested on: MCF7
U-251 = tested on: U-251
HCC 2998 = tested on: HCC 2998
A498 = tested on: A498
CCRF-CEM = tested on: CCRF-CEM
MDA-N = tested on: MDA-N
HCT-116 = tested on: HCT-116
UACC-257 = tested on: UACC-257
EKVX = tested on: EKVX
OVCAR-4 = tested on: OVCAR-4
Malme-3M = tested on: Malme-3M
HOP-62 = tested on: HOP-62
SW-620 = tested on: SW-620
SR = tested on: SR
SK-MEL-5 = tested on: SK-MEL-5
RPMI-8226 = tested on: RPMI-8226
MDA-MB-435 = tested on: MDA-MB-435
OVCAR-8 = tested on: OVCAR-8
SK-MEL-28 = tested on: SK-MEL-28
NCI-H522 = tested on: NCI-H522
HL-60 = tested on: HL-60
HT-29 = tested on: HT-29
NCI-H226 = tested on: NCI-H226
UACC-62 = tested on: UACC-62
K562 = tested on: K562
HOP-92 = tested on: HOP-92

Measured: GI50

CC(=O)OCC1OC(N2C(c3ccccc3)=CC(c3cccs3)C(C#N)=C2S)C(OC(C)=O)C(OC(C)=O)C1OC(C)=O (stereo not drawn)
inactive: NCI-H460 > 100 µM | SK-MEL-2 > 100 µM | SF-268 4.49 µM | DU-145 > 100 µM | SNB-75 4.43 µM | SK-OV-3 > 100 µM | LOX IMVI > 100 µM | SNB-19 47.3 µM | NCI/ADR-RES > 100 µM | COLO 205 > 100 µM | SF-295 > 100 µM | SF-539 2.34 µM | ACHN > 100 µM | OVCAR-5 4.92 µM | RXF 393 3.43 µM | TK-10 > 100 µM | IGROV-1 > 100 µM | T47D > 100 µM | MDA-MB-231 6.03 µM | Hs-578T 2.47 µM | MOLT-4 > 100 µM | UO-31 > 100 µM | NCI-H23 5.18 µM | OVCAR-3 > 100 µM | SN12C > 100 µM | CAKI-1 > 100 µM | A549 > 100 µM | 786-0 2.55 µM | KM12 > 100 µM | PC-3 > 100 µM | M14 1.84 µM | MCF7 > 100 µM | U-251 10.3 µM | HCC 2998 > 100 µM | A498 10.5 µM | CCRF-CEM > 100 µM | MDA-N > 100 µM | HCT-116 2.25 µM | UACC-257 > 100 µM
> 100 µM: HCT-15

C=C1OC(=O)[C@]2([C@@H](/C=C/C)C=CC(=O)[C@H]2O)[C@@H]1O
> 100 µM: HCT-15
inactive: NCI-H460 > 100 µM | SK-MEL-2 > 100 µM | EKVX > 100 µM | SF-268 > 100 µM | DU-145 > 100 µM | SNB-75 > 100 µM | SK-OV-3 > 100 µM | LOX IMVI > 100 µM | OVCAR-4 > 100 µM | Malme-3M > 100 µM | SNB-19 > 100 µM | HOP-62 > 100 µM | NCI/ADR-RES > 100 µM | COLO 205 > 100 µM | SF-295 > 100 µM | SF-539 > 100 µM | ACHN > 100 µM | OVCAR-5 > 100 µM | SW-620 > 100 µM | SR 73.6 µM | RXF 393 > 100 µM | SK-MEL-5 > 100 µM | TK-10 > 100 µM | IGROV-1 > 100 µM | T47D > 100 µM | MDA-MB-231 > 100 µM | Hs-578T > 100 µM | MOLT-4 > 100 µM | RPMI-8226 > 100 µM | MDA-MB-435 > 100 µM | UO-31 > 100 µM | OVCAR-8 > 100 µM | NCI-H23 > 100 µM | OVCAR-3 > 100 µM | SK-MEL-28 > 100 µM | SN12C > 100 µM | CAKI-1 > 100 µM | NCI-H522 > 100 µM | A549 > 100 µM | 786-0 > 100 µM | HL-60 > 100 µM | KM12 > 100 µM | PC-3 > 100 µM | M14 > 100 µM | HT-29 > 100 µM | MCF7 > 100 µM | U-251 > 100 µM | HCC 2998 > 100 µM | CCRF-CEM > 100 µM | MDA-N > 100 µM | HCT-116 > 100 µM | NCI-H226 > 100 µM | UACC-257 > 100 µM | UACC-62 > 100 µM | K562 > 100 µM

Cc1ccc2n(c1)cc(-c1ccc(/C=N/NC(=N)N/N=C/c3ccc(-c4cn5cc(C)ccc5[n+]4C)cc3)cc1)[n+]2C
95.9 µM: HCT-15
inactive: NCI-H460 80.2 µM | EKVX > 100 µM | SF-268 21.4 µM | SNB-75 20.9 µM | SK-OV-3 > 100 µM | OVCAR-4 26.9 µM | SNB-19 > 100 µM | HOP-62 > 100 µM | NCI/ADR-RES > 100 µM | COLO 205 > 100 µM | SF-295 > 100 µM | SF-539 39.8 µM | ACHN 40.2 µM | OVCAR-5 > 100 µM | SW-620 > 100 µM | SR > 100 µM | SK-MEL-5 41.1 µM | TK-10 > 100 µM | IGROV-1 > 100 µM | T47D > 100 µM | MDA-MB-231 > 100 µM | Hs-578T 74.3 µM | MOLT-4 > 100 µM | RPMI-8226 > 100 µM | MDA-MB-435 35.6 µM | UO-31 25.6 µM | OVCAR-8 > 100 µM | SK-MEL-28 19.5 µM | SN12C > 100 µM | NCI-H522 > 100 µM | A549 > 100 µM | 786-0 36.3 µM | HL-60 > 100 µM | KM12 > 100 µM | PC-3 > 100 µM | M14 33.9 µM | HT-29 > 100 µM | MCF7 > 100 µM | U-251 > 100 µM | HCC 2998 > 100 µM | CCRF-CEM > 100 µM | MDA-N 50.2 µM | HCT-116 > 100 µM | UACC-257 50.6 µM | K562 > 10 µM

CCCCCCCCCCCCc1ccc(S(=O)(=O)O)cc1
inactive: NCI-H460 > 100 µM | EKVX > 100 µM | SF-268 > 100 µM | DU-145 > 100 µM | SNB-75 > 100 µM | SK-OV-3 > 100 µM | LOX IMVI 49.5 µM | OVCAR-4 > 100 µM | Malme-3M > 100 µM | SNB-19 > 100 µM | HOP-62 > 100 µM | NCI/ADR-RES > 100 µM | COLO 205 > 100 µM | SF-295 > 100 µM | SF-539 > 100 µM | ACHN > 100 µM | OVCAR-5 > 100 µM | HOP-92 88.1 µM | SW-620 > 100 µM | RXF 393 > 100 µM | SK-MEL-5 > 100 µM | TK-10 > 100 µM | IGROV-1 11.5 µM | T47D > 100 µM | MDA-MB-231 > 100 µM | Hs-578T > 100 µM | MOLT-4 > 100 µM | RPMI-8226 > 100 µM | MDA-MB-435 > 100 µM | UO-31 > 100 µM | OVCAR-8 > 100 µM | NCI-H23 > 100 µM | OVCAR-3 > 100 µM | SK-MEL-28 > 100 µM | SN12C > 100 µM | CAKI-1 > 100 µM | A549 > 100 µM | 786-0 > 100 µM | HL-60 > 100 µM | KM12 > 100 µM | PC-3 > 100 µM | M14 > 100 µM | HT-29 > 100 µM | MCF7 98.9 µM | U-251 89.7 µM | HCC 2998 > 100 µM | A498 26.8 µM | CCRF-CEM > 100 µM | MDA-N > 100 µM | HCT-116 > 100 µM | NCI-H226 90.6 µM | UACC-257 64.6 µM | UACC-62 34.4 µM | K562 > 100 µM
> 100 µM: HCT-15

N=C(N)c1ccc(OCCCCCOc2ccc(C(=N)N)cc2)cc1
16.7 µM: HCT-15
inactive: NCI-H460 3.08 µM | SK-MEL-2 17.3 µM | EKVX 18.1 µM | SF-268 12.5 µM | DU-145 13.6 µM | LOX IMVI 12.7 µM | OVCAR-4 11.2 µM | Malme-3M 13.8 µM | SNB-19 15.7 µM | HOP-62 16.1 µM | ACHN 14.4 µM | OVCAR-5 22.8 µM | HOP-92 32.6 µM | TK-10 13.6 µM | T47D 7.73 µM | Hs-578T 11.5 µM | MDA-MB-435 10.4 µM | OVCAR-8 7.85 µM | NCI-H23 6.71 µM | OVCAR-3 15.5 µM | SK-MEL-28 10.2 µM | SN12C 7.06 µM | CAKI-1 > 100 µM | NCI-H522 6.44 µM | A549 6.17 µM | 786-0 13.4 µM | HL-60 15.3 µM | PC-3 12.1 µM | M14 15.2 µM | MCF7 5.31 µM | U-251 9.84 µM | MDA-N 11.2 µM | HCT-116 14.4 µM | UACC-62 11.5 µM | K562 1.92 µM

— ChEMBL document CHEMBL1201862, “PubChem BioAssay data set” (2004)
